Measurements: patent publication US12358904B2, “Inhibitors of TYK2” (Atomwise Inc., priority 2023, dated 2025)
pIC50: −log10 of the molar value.

Tests used:
[1] = Brain exposure pharmacokinetic study in rats; format: in vivo, rat; conditions: male Sprague Dawley rats, oral gavage 10 mg/kg, plasma, CSF
Procedure: The brain exposure of exemplary compounds, e.g., 1, 2, and 4 were evaluated in male Sprague Dawley rats after oral gavage administration at 10 mg/kg. The formulation was 5% DMSO+10% PEG400 in saline. Rats were fasted overnight with food returned 4 hours post-dose. CSF was collected by direct needle puncture into the cisterna magna.
(§1) For both rat and mouse studies, brain tissue was washed with 3 volumes of saline prior to homogenization. Brain tissue was homogenized with 3 volumes (v/w) of phosphate buffered saline. Plasma, brain homogenate, and CSF samples (rat only) were analyzed by LC-MS/MS and the concentration of test compound at each time point was determined by linear regression.
(§2) Pharmacokinetic parameters were calculated from the plasma, brain, and CSF concentrations by non-compartmental modeling using WinNonlin 8.2.

TYK2-JH2 = biological target: T1, TYK2-JH2 (Homo sapiens, UniProt P29597); experiment: TYK2-JH2 HTRF binding assay (ligand efficiency); conditions: calculated from IC50 of the TYK-JH2 binding assay (Equation 1)
T1 construct: TYK JH2 enzyme mix (ChemPartnec CP20210818A-BV); purchased ChemPartner CP20210818A-BV
T1 sequence (P29597 589-875 limits assumed): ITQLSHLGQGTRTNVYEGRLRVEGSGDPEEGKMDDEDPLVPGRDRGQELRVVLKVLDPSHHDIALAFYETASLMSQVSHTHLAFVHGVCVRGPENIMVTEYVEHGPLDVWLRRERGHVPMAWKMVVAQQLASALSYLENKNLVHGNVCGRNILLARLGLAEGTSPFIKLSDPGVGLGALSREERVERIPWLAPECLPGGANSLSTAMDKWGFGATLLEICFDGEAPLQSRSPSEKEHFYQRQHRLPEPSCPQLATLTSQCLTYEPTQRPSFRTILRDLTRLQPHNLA
How it was run: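 His-tagged TYK2 JH2 (0.5 nM) preincubated 10 min at RT with compound (0.1–0.000005 μM) in 20 mM HEPES pH 7.5, 10 mM MgCl2, 0.01% Triton X-100, 1 mM DTT; then 35 nM tracer plus anti-6HIS Tb cryptate, 60 min RT. TR-FRET read (Ex340/Em495/520); IC50 converted to ligand efficiency.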

IL-6/pSTAT3 = experiment: IL-6 induced pSTAT3 assay in TF-1 cells; format: cell-based; conditions: Homo sapiens, read-out: Cellular selectivity (IL-6/pSTAT3)
Procedure: The following example describes the IL-6 induced pSTAT3 assay used to determine the cellular selectivity (IL-6/pSTAT3) of the TYK2 inhibitors.
TF-1 (ATCC®, CRL-2003™) cells were cultured in RPMI 1640 Medium, with GlutaMAX™ Supplement, HEPES for Cell Culture (Life Technologies, 72400047), 10% Fetal Bovine Serum (Life Technologies, 26400044), 2 ng/mL human recombinant GM-CSF (Life Technologies, PHC2013), 1 mM Sodium pyruvate (Life Technologies, 11360039), 1% MEM NEAA (Life Technologies, 11140-035), 1% Penicillin/Streptomycin (Life Technologies, 15140-122).
TF-1 (70×10^6) cells were starved overnight in T01 50 flasks (Opti-MEM™ I Reduced Serum Medium, no phenol red (Life Technologies, 11058-021), 1 mM Na pyruvate (Life Technologies, 11360039), 1% MEM NEAA (Life Technologies, 11140-035), and 1% Penicillin/Streptomycin (Life Technologies, 15140-122)) then seeded into 96-well TPP plates (150 000 cell/well) and incubated with test compounds (Final Concentration [nM] 10000-0.05) for 30 minutes at 37° C. […] Stimulation was terminated by addition of lysis buffer (MSD K150SVD) and pSTAT3 detection was measured with Phospho-STAT3 (Tyr705) Kit MSD K150SVD)) according to manufacturer's instruction. Briefly, cell lysates were added to pre-blocked plates, sealed, and shake for 1 hour at room temperature. Plates were then washed and incubated with detection antibody for 1 hour at room temperature. After washing, Read Buffer was added, and plates were read on MSD instrument (Model 1300 MSD Quickplex SQ 120).

IL-12/pSTAT4 = experiment: IL-12 induced pSTAT4 assay in NK-92 cells; format: cell-based; conditions: Homo sapiens, NK92, IL-12 stimulation, read-out: Cellular potency (IL-12/pSTAT4)
How it was run: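 Overnight-starved NK-92 cells (20K/well) pre-incubated with compounds (1000 to 0.05 nM final) 30 min at 37 °C, then stimulated with IL-12 (10 ng/ml) for 30 min at 37 °C. Lysates assayed for pSTAT4 (Tyr693) by MSD electrochemiluminescence.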

GM-CSF/pSTAT5 = experiment: GM-CSF induced pSTAT5 assay in CellSensor irf1-bla TF-1 cells; format: cell-based; conditions: Homo sapiens, GM-CSF 1 ng/mL, read-out: Cellular selectivity (GM-CSF induced pSTAT5)
Procedure: The CellSensor irf1-bla TF-1 cell line (LifeTechnologies, K1657) was cultured in RPMI 1640 Medium (Invitrogen 72400-047), 10% Fetal Bovine Serum (Invitrogen, 26400044), 1 mM Sodium pyruvate (Life Technologies, 11360039), 1% MEM NEAA (Life Technologies, 11140-035), 2 ng/ml of human recombinant GM-CSF (Fisher, PHC2015), 1% Penicillin/Streptomycin (Life Technologies, 15140-122) and 5 μg/ml of Blasticidin (ThermoFisher, A1113903).
The cell line was seeded in a T75 flask at 13×10^6 cells/50 mL in starvation medium (Opti-MEM™ I Reduced Serum Medium, no phenol red (Life Technologies, 11058-021), 1 mM Na pyruvate (Life Technologies, 11360039), 1% MEM NEAA (Life Technologies, 11140-035), and 1% Penicillin/Streptomycin (Life Technologies, 15140-122)) for 16 hours at 37° C. under 5% CO2 the day before the assay.
For the assay, CellSensor irf1-bla TF-1 cells were seeded at 30 000 cells/32 μL (starvation medium)/well in a 384-well plate.
Compounds were added on the cells in 4 μL (starvation medium)/well at 10× the final concentration. They were incubated for 30 minutes at 37° C.
Human recombinant carrier-free GM-CSF (ThermoFisher, ref PHC2015) was added to the wells in 4 μL (starvation medium)/well at 10×. The final concentration was 1 ng/mL. Control wells without GM-CSF treatment were added. Plates were incubated for 5 hours at 37° C.
6× LiveBlazer-FRET substrate (Invitrogen, K1085) was added to the wells at 8 μL/well. The substrate was prepared shortly before use by mixing 6 μL of solution A and 60 μL of solution B to 934 μL of solution C. Plates were incubated for 2.5 hours at room temperature in the dark. The plates were read on an Envision (Perkin Elmer) with an excitation at a wavelength of 409 nm and two wavelengths for the emission 520 nm and 450 nm. The ratio between the […] emission was used to calculate the IC50s.
The IC50 for the inhibition of pSTAT5 was calculated with the Xlfit software using the 4 Parameter Logistic Model or Sigmoidal Dose-Response Model (model 205).

[2] = Brain exposure pharmacokinetic study in mice; format: in vivo, mouse; conditions: male C57BL/6 mice, oral gavage 5 mg/kg, plasma
Procedure: The brain exposure of 18 was evaluated in male C57BL/6 mice after oral gavage administration at 5 mg/kg. The formulation was 10% DMSO+40% PEG400 in saline. Mice were provided free access to food and water without fasting. Terminal sample collection of plasma and brain tissue were collected at […], 0.25, 0.5, 1, 2, and 4 hours post-dose with n=3 at each timepoint.
as §1, §2

Row | Structure (SMILES) | Brain Kpu, u [1] | Ligand Efficiency (TYK2-JH2) | pIC50 (IL-6/pSTAT3) | pIC50 (IL-12/pSTAT4) | pIC50 (GM-CSF/pSTAT5) | Brain Kpu, u [2]
1 | C[C@@H](c1ccc(Nc2cc(Nc3ncccc3S(C)(=O)=O)ncn2)nc1)N(C)C [Compound 4, (S)—N^4-(5-(1-(dimethylamino)ethyl)79yridine-2-yl)-N^6-(3-(methylsulfonyl) 79yridine-2-yl) pyrimidine-4,6-diamine] | ††† (††† >0.2u) | ††† (†††: >0.39) | 5.00 to 5.40 | > 7.00 | < 5.00 | 
2 | C[C@@H](c1ccc(Nc2cc(Nc3ncc(F)cc3S(C)(=O)=O)ncn2)nc1)N1CC2(COC2)C1 [Compound 2, (S)—N^4-(5-(1-(2-oxa-6-azaspiro[3.3]heptan-6-yl)ethyl)75yridine-2-yl)-N^6-(5-fluoro-3-(methylsulfonyl)75yridine-2-yl)pyrimidine-4,6-diamine] | † († <0.1u) | ††† (†††: >0.39) | < 5.00 | > 7.00 | < 5.00 | 
3 | C[C@@H](c1ccc(Nc2cc(Nc3ncccc3S(C)(=O)=O)ncn2)nc1)N1CC2(COC2)C1 [Compound 1, (S)—N^4-(5-(1-(2-oxa-6-azaspiro[3.3]heptan-6-yl)ethyl)73yridine-2-yl)-N^6-(3-(methylsulfonyl)73yridine-2-yl)pyrimidine-4,6-diamine] | †† (†† 0.1-0.2u) | ††† (†††: >0.39) | < 5.00 | > 7.00 | 5.00 to 5.40 | 
4 | Cc1cccc(Nc2cc(Nc3ncccc3S(C)(=O)=O)ncn2)n1 [Compound 18, N^4-(6-methylpyridin-2-yl)-N^6-(3-(methylsulfonyl)99yridine-2-yl) pyrimidine-4,6-diamine] |  | ††† (†††: >0.39) | > 5.40 | > 7.00 | < 5.00 | ††† (††† >0.2u)
